Tests used:
Format in all cases: cell-based
[1] = test system: COL III (type III collagen); experiment: Transcription of type III collagen (COL III) by qRT-PCR in UVA-stimulated fibroblast model; conditions: for PCR Transcription of Type III Collagen (COL III) Up-regulation Rate Compared with NC Group: UVA 30 J/cm^2, (sample - NC)/NC x 100%; for PCR Transcription of Type III Collagen (COL III) Mean Value: UVA 30 J/cm^2, mRNA by 2^-ΔΔCT normalised to BC = 1 (NC 0.67), dosing: TGF-β1 100 ng/mL, Pro-xylane 0.5000%, tetrapeptide-1 0.00109%, encapsulated retinol 0.00313%, combination at the same concentrations, 1440 min
Procedure: (§1) Testing method: based on UVA-stimulated fibroblast model, transcription of type I and type III collagens was tested using qRT-PCR method, and specific steps were as follows: • 1) Cell inoculation: after resuscitation of fibroblasts, when a plating rate reached about 60%, cells were inoculated in a 6-well plate, and incubated overnight in an incubator (37 °C, 5% CO2). • 2) Liquid formulation: according to test schemes (see TABLE 1 and TABLE 2), test substance working solutions were formulated respectively according to mass ratios. TABLE 1 COL I Detection Scheme
(§2) 3) Dosing: according to the test schemes in TABLE 1 and TABLE 2, when the plating rate of the cells in the 6-well plate reached about 30%-50%, dosing was performed for the groups respectively, with each group in triplicate. The blank control group and the negative control group were added with 2 mL of a culture solution per well, the positive control group was added with 2 mL of a TGF-β1-containing culture solution per well, and sample group was added with 2mL of a test sample-containing culture solution at corresponding concentration per well. After the dosing was completed, the 6-well plate continued to be cultured in the CO2 incubator (37 °C, 5% CO2) for 24 h.
(§3) 4) UVA stimulation: according to test groups, except the blank control group, other groups were all subjected to UVA irradiation, with an irradiation dosage of 30 J/cm^2. After the irradiation was finished, culture was continued in the CO2 incubator (37 °C, 5% CO2) for 24 h.
(§4) 5) Cell collection: after incubation was ended, an original solution was sucked out and discarded, PBS cleaning was performed twice, and each well was added with 1 mL of RNAiso Plus, to pipet and lyse the cells, after which samples were collected.
(§5) 6) Detection of gene expression: RNA was extracted and subjected to reverse transcription to cDNA to undergo fluorescence quantitative PCR detection, and result was calculated by a 2^-△△CT method.
(§6) 7) Calculation of up-regulation rate: Up-regulation rate (%) = (Sample group−Negative control group)/(Negative control group) × 100% [formula]
(§7) 8) Data analysis: statistical analysis was performed using t-test method, and normalization processing was performed on amplification factors of mRNA in BC group, where all statistical analysis was double-tailed. Compared with the blank group, significance is expressed by ^#, p<0.05 is expressed by ^#, p<0.01 is expressed by ^##; compared with the negative blank group, significance is expressed by*, p<0.05 is expressed by *, p<0.01 is expressed by **.

COLI (type I collagen) = experiment: Transcription of type I collagen (COL I) by qRT-PCR in UVA-stimulated fibroblast model; conditions: for PCR Transcription of Type I Collagen (COL I) Up-regulation Rate Compared with NC Group: UVA 30 J/cm^2, (sample - NC)/NC x 100%; for PCR Transcription of Type I Collagen (COL I) Mean Value: UVA 30 J/cm^2, mRNA by 2^-ΔΔCT normalised to BC = 1 (NC 0.43), dosing: TGF-β1 100 ng/mL, Pro-xylane 0.5000%, tetrapeptide-1 0.00109%, encapsulated retinol 0.00313%, gum 0.00222%, combinations at the same concentrations, 1440 min
Procedure: as §1, §2, §3, §4, §5, §6, §7

[2] = test system: CRABP2 cellular retinoic acid binding protein 2; experiment: Transcription of CRABP2 by qRT-PCR in UVA-stimulated fibroblast model
Procedure: Testing method: based on UVA-stimulated fibroblast model, transcription of CRABP2 was tested using qRT-PCR method, and specific steps were as follows: • 1) Cell inoculation: after resuscitation of cells, when a plating rate reached about 60%, the cells were inoculated in a 6-well plate, and incubated overnight in an incubator (37 °C, 5% CO2). • 2) Liquid formulation: according to a test scheme (see TABLE 5), test substance working solutions were formulated respectively according to mass ratios. TABLE 5 CRABP2 Detection Scheme
as §2, with “According” for “according”, “scheme” for “schemes”, “5,” for “1 and TABLE 2,”, “2 mL” for “2mL”, “h. […]” for “h.”
6) Detection of gene expression: RNA was extracted and subjected to reverse transcription to cDNA to undergo fluorescence quantitative PCR detection, and result was calculated by a 2^-△△CT method. […]

Row | PCR Transcription of Type III Collagen (COL III) Mean Value [1] | PCR Transcription of Type I Collagen (COL I) Mean Value (COLI (type I collagen)) | Transcription of Cellular Retinoic Acid Binding Protein 2 (CRABP2) Up-regulation Rate Compared with NC Group ([2]; UVA 30 J/cm^2, (sample - NC)/NC x 100%) [%] | Transcription of Cellular Retinoic Acid Binding Protein 2 (CRABP2) Mean Value ([2]; UVA 30 J/cm^2, mRNA by 2^-ΔΔCT normalised to BC = 1 (NC 0.48), dosing: TGF-β1 100 ng/mL, gum 0.00222%, encapsulated retinol 0.00313%, tetrapeptide-1 0.00109%, combinations at the same concentrations, 1440 min) | Compound | PCR Transcription of Type III Collagen (COL III) Up-regulation Rate Compared with NC Group [1] [%] | PCR Transcription of Type I Collagen (COL I) Up-regulation Rate Compared with NC Group (COLI (type I collagen)) [%]
1 | 0.88 | 1.01 |  |  | CC(O)C[C@@H]1OC[C@@H](O)[C@H](O)[C@H]1O (stereo partly shown) [Comparative Example 1, Pro-xylane, reference compound] | 31.34 | 134.88
2 | 0.71 | 0.54 | 20.83 | 0.58 | Tetrapeptide-1 [Comparative Example 2] | 5.97 | 25.58

Source: patent publication EP4647061A1, “COMPOSITION CONTAINING RETINOL AND SYNERGIST AND USE THEREOF” (Guangzhou Jiyan Cosmetics Technology Co., Ltd., priority 2024, dated 2025)
